In patent US20060286630A1, “Posh interacting proteins and related methods” (Proteologics, Inc., priority 2003, published 2006):

Assays:
HBV = experiment: Inhibition of HBV production in HepG2.2.15 cells; assay type: cell-based; conditions: 3 μM, treated every 24 hours for 4 days, FIG. 35 lanes 7 and 8
Procedure: HepG2.2.15 cells were plated on 9 cm dishes and allowed to grow in 8% FCS for 5 days up to 70% confluence. After 5 days, cells were washed twice with PBS and re-supplied with fresh DMEM without FCS. In this medium, cells were treated every 24 hours with the depicted solutions (3 μl solution/11 ml medium) for another 4 days (4 treatments total). After 4 days, medium was collected from each plate, viruses were sedimented and analyzed.
Detection of HBV proteins was performed essentially as described in Paran, N et al (2001) EMBO J 20(16):4443-4453.

[1] = test system: Bacterially expressed recombinant maltose-binding-protein (MBP)-hPOSH [MBP: P0AEX9]
HIV-1 [2] = conditions: H89 50 μM; HeLa SS6 cells transfected with pNLenv-1; VLPs collected twenty minutes after shift from 20° C. to 37° C.
Procedure: HeLa SS6 cells were transfected with pNLenv-1PTAP or pNLenv-1ATAA (L-domain mutant). Eighteen hours post-transfection, cells were transferred to 20° C. for two hours in order to inhibit transport of viral particles from the trans-Golgi (TGN) to the plasma membrane (PM). Subsequently, the PKA inhibitor, H89 (50 μM) (Biosource, Cat. No. PHZ1114) or DMSO were added to the cells and dishes were transferred to 37° C. to initiate transport from the TGN to the PM. Reverse transcriptase activity was assayed from virus-like-particles collected from cell supernatant twenty minutes later.

HIV-1 [3] = conditions: Cartier et al., 2003, J Biol Chem., 278:35211-9; cited from earlier work

Compound: O=C1C=CC(=O)N1c1ccc(OC(F)(F)C(F)F)c(N2C(=O)C=CC2=O)c1 [CAS number 14567-55-4]
- HBV production (HBV): inhibit HBV production

Compound: PKA catalytic subunit (PKAc)
- in-vitro phosphorylation of MBP-hPOSH by PKA catalytic subunit, immunoblot [1]: POSH is phosphorylated by PKA

Compound: Oc1c(Br)cc(Cl)cc1/C=N/c1ccccc1Br [CAS number 414908-38-0]
- HBV production (HBV): inhibit HBV production

Compound: O=S(=O)(NCCNCC=Cc1ccc(Br)cc1)c1cccc2cnccc12 [H89, N-[2-((Pbromocinnamyl)amino)ethyl]isoquinolinesulfonamide]
- RT activity of virus-like particles collected from cell supernatant (HIV-1 [2]): complete inhibition
- HIV-1 release from cells (HIV-1 [3]): able to block HIV-1 release from cells
